Laboratory results reported in the supplement of paper PMC11451515.

System: SEM cells
Test: cell viability relative to DMSO control; higher = less cytotoxic
Details: 48 h
Outline: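 Library compounds in DMSO were pin-dosed into 1536-well plates (5 μl) holding NOMO1 or SEM (500 cells/well) or P12-Ichikawa (1000 cells/well) leukemia cells, across an 11-point threefold series of 47 μM to 0.79 nM. Each cell line had been adapted for at least four passages in each medium. CellTiter-Glo One luminescence was read after 48 h at 37°C. Viability is the per-plate percentage relative to DMSO wells, with cell-free wells as background.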

[1] = HPLM + 10% dialyzed FBS, 0.000781 µM
[2] = HPLM + 10% dialyzed FBS, 0.00234 µM
[3] = HPLM + 10% dialyzed FBS, 0.00702 µM
[4] = HPLM + 10% dialyzed FBS, 0.0211 µM
[5] = HPLM + 10% dialyzed FBS, 0.0632 µM
[6] = HPLM + 10% dialyzed FBS, 0.19 µM
[7] = HPLM + 10% dialyzed FBS, 0.569 µM
[8] = HPLM + 10% dialyzed FBS, 1.71 µM
[9] = HPLM + 10% dialyzed FBS, 5.12 µM
[10] = HPLM + 10% dialyzed FBS, 15.4 µM
[11] = HPLM + 10% dialyzed FBS, 46.1 µM
[12] = RPMI 5 mM glucose + 10% FBS, 0.000781 µM
[13] = RPMI 5 mM glucose + 10% FBS, 0.00234 µM
[14] = RPMI 5 mM glucose + 10% FBS, 0.00702 µM
[15] = RPMI 5 mM glucose + 10% FBS, 0.0211 µM
[16] = RPMI 5 mM glucose + 10% FBS, 0.0632 µM
[17] = RPMI 5 mM glucose + 10% FBS, 0.19 µM
[18] = RPMI 5 mM glucose + 10% FBS, 0.569 µM
[19] = RPMI 5 mM glucose + 10% FBS, 1.71 µM
[20] = RPMI 5 mM glucose + 10% FBS, 5.12 µM
[21] = RPMI 5 mM glucose + 10% FBS, 15.4 µM
[22] = RPMI 5 mM glucose + 10% FBS, 46.1 µM
[23] = RPMI 5 mM glucose + 10% dialyzed FBS, 0.000781 µM
[24] = RPMI 5 mM glucose + 10% dialyzed FBS, 0.00234 µM
[25] = RPMI 5 mM glucose + 10% dialyzed FBS, 0.00702 µM
[26] = RPMI 5 mM glucose + 10% dialyzed FBS, 0.0211 µM
[27] = RPMI 5 mM glucose + 10% dialyzed FBS, 0.0632 µM
[28] = RPMI 5 mM glucose + 10% dialyzed FBS, 0.19 µM
[29] = RPMI 5 mM glucose + 10% dialyzed FBS, 0.569 µM
[30] = RPMI 5 mM glucose + 10% dialyzed FBS, 1.71 µM
[31] = RPMI 5 mM glucose + 10% dialyzed FBS, 5.12 µM
[32] = RPMI 5 mM glucose + 10% dialyzed FBS, 15.4 µM
[33] = RPMI 5 mM glucose + 10% dialyzed FBS, 46.1 µM

Structure (SMILES) | cell viability [1] [%] | cell viability [2] [%] | cell viability [3] [%] | cell viability [4] [%] | cell viability [5] [%] | cell viability [6] [%] | cell viability [7] [%] | cell viability [8] [%] | cell viability [9] [%] | cell viability [10] [%] | cell viability [11] [%] | cell viability [12] [%] | cell viability [13] [%] | cell viability [14] [%] | cell viability [15] [%] | cell viability [16] [%] | cell viability [17] [%] | cell viability [18] [%] | cell viability [19] [%] | cell viability [20] [%] | cell viability [21] [%] | cell viability [22] [%] | cell viability [23] [%] | cell viability [24] [%] | cell viability [25] [%] | cell viability [26] [%] | cell viability [27] [%] | cell viability [28] [%] | cell viability [29] [%] | cell viability [30] [%] | cell viability [31] [%] | cell viability [32] [%] | cell viability [33] [%]
NC1CCC(Nc2nc(Nc3ccc(C(=O)N4CCCCC4)cc3)c3ncn(-c4cccc(F)c4)c3n2)CC1 (centres undefined) | 91.7 | 94.8 | 95.2 | 96.6 | 102 | 117 | 55 | 59.1 | 102 | 128 | 125 | 110 | 102 | 104 | 112 | 103 | 124 | 75.9 | 62.9 | 100 | 110 | 90.1 | 99.6 | 99 | 100 | 99.3 | 106 | 113 | 64.6 | 41.9 | 98.6 | 98.6 | 88.9
CCCCCCCCOc1ccccc1C(=O)Nc1ccc(C(=O)OCC[N+](C)(CC)CC)cc1 | 105 | 115 | 101 | 105 | 102 | 112 | 108 | 96.6 | 73.9 | 91.2 | 57.2 | 98.2 | 93 | 84.5 | 102 | 96.9 | 102 | 97 | 85.6 | 49.5 | 93.5 | 33.4 | 97 | 109 | 90.4 | 99.9 | 107 | 121 | 104 | 95.3 | 75.5 | 118 | 30.7
CCNC(=O)Nc1ccc(-c2nc3c(c(N4CCOC[C@@H]4C)n2)CCN(C2COC2)C3)cc1 | 96.1 | 116 | 111 | 113 | 108 | 87.7 | 98.9 | 57.7 | 43.5 | 31.7 | 32.1 | 105 | 105 | 114 | 108 | 113 | 95.1 | 87.8 | 55.7 | 41.1 | 27 | 20.9 | 119 | 125 | 104 | 120 | 121 | 109 | 102 | 79.2 | 51.4 | 41 | 36.1
